“Also recorded” adds a separate entry of the source.
Target: T1, human PEG10 (Homo sapiens, UniProt Q86TG7)
T1 construct: expressed in transfected cells; host or cells: HEK293
T1 sequence (Q86TG7 1-708): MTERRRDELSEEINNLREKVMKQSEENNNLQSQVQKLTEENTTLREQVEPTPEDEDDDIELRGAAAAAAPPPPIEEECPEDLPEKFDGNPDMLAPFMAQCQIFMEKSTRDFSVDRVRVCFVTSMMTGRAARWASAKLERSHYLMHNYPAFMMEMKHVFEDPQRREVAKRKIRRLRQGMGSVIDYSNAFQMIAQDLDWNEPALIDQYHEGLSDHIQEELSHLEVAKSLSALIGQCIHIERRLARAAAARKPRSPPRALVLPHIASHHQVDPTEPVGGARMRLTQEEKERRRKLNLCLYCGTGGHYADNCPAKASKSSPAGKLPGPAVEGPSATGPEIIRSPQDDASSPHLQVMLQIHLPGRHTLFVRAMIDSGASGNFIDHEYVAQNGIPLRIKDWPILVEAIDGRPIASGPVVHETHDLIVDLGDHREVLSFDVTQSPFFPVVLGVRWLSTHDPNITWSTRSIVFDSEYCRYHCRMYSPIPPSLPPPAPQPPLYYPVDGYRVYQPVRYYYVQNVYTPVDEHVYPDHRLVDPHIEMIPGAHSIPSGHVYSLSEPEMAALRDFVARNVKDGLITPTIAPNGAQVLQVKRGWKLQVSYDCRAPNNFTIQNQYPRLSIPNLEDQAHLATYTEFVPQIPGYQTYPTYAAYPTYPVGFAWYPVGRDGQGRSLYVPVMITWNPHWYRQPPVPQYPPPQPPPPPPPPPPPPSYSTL
Assay: Western blot of PEG10 abundance and self-cleavage in HEK293 cells transfected with human PEG10
Type: cell-based
Conditions: HEK293 cells transfected with WT human PEG10, incubated 24 hours with increasing concentrations of drug (up to 50 uM), compared to untreated
Description: FIG. 1: Western blot of PEG10 self-cleavage testing with antiretroviral compounds. HEK293 cells were transfected with either WT or a cleavage-incompetent mutant form of human PEG10 and incubated for 24 hours with the indicated concentrations of drug. After 24 hours, cells were lysed and imaged by western blot.
FIG. 2A-D: PEG10 abundance is decreased by ritonavir, but not indinavir. a-d) Bands identified in FIG. 1 were quantified and normalized to Tubulin for a) gag-pol, b) gag, c) CA fragment, and d) CA^NTD fragment. Shown is mean+/−SEM for four representative experiments; one sample from untreated indinavir and 50 uM of indinavir and ritonavir were not collected. Statistics were measured by One-way ANOVA with multiple comparisons to untreated; statistically significant comparisons are shown with asterisks. ANOVA summary significance is shown with straight line.
Shown is mean+/−SEM for four representative experiments; one sample from untreated indinavir and 50 uM of indinavir and ritonavir were not collected. Statistics were measured by One-way ANOVA with multiple comparisons to untreated; statistically significant comparisons are shown with asterisks. ANOVA summary significance is shown with straight line.
Applicants performed an assay using western blot to assess self-cleavage of transfected PEG10 (FIG. 1) with a negative control where the PEG10 protease is mutated. […]

CC(C)c1nc(CN(C)C(=O)N[C@H](C(=O)N[C@@H](Cc2ccccc2)C[C@H](O)[C@H](Cc2ccccc2)NC(=O)OCc2cncs2)C(C)C)cs1 [ritonavir]
PEG10 abundance (expression in the cell; bands normalized to Tubulin: gag-pol, gag, CA fragment, CA NTD fragment): decreased; also recorded: uniquely decreases PEG10 expression | Self-cleavage of PEG10 (ratios gag-pol to gag, CA fragment to gag, CA NTD fragment to gag): modestly affected; also recorded: modest effect
